Laboratory results as given in PubChem BioAssay (NCI).
“And” between values parts separate entries of the source, which are not always exact repeats. Equal entries are not always repeated.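 All cell lines were grown in 96-well plates and treated with compound for 48 hours. GI50 marks 50% less growth. The concentration for full growth arrest is given as TGI.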

Tests used:
Experiment in all cases: NCI tumour cell line growth inhibition, 48 h
HOP-18 NSCLC = system: HOP-18 NSCLC
SK-OV-3 ovarian = system: SK-OV-3 ovarian
MDA-MB-435 = system: MDA-MB-435
ACHN renal = system: ACHN renal
HOP-62 NSCLC = system: HOP-62 NSCLC
HCT-116 colon = system: HCT-116 colon
SF-268 CNS = system: SF-268 CNS
DLD-1 colon = system: DLD-1 colon
SNB-19 CNS = system: SNB-19 CNS
NCI-H522 lung = system: NCI-H522 lung
OVCAR-8 ovarian = system: OVCAR-8 ovarian
NCI-H23 lung = system: NCI-H23 lung
DMS 273 small cell lung = system: DMS 273 small cell lung
SR leukemia = system: SR leukemia
786-0 renal = system: 786-0 renal
MOLT-4 leukemia = system: MOLT-4 leukemia
K-562 leukemia = system: K-562 leukemia
SNB-78 CNS = system: SNB-78 CNS
HOP-92 NSCLC = system: HOP-92 NSCLC
HS 578T breast = system: HS 578T breast
P388 leukemia = system: P388 leukemia
TK-10 renal = system: TK-10 renal
U251 CNS = system: U251 CNS
MDA-N = system: MDA-N
SN12K1 renal = system: SN12K1 renal
RXF-631 renal = system: RXF-631 renal
OVCAR-4 ovarian = system: OVCAR-4 ovarian
LXFL 529 NSCLC = system: LXFL 529 NSCLC
P388/ADR leukemia = system: P388/ADR leukemia
SNB-75 CNS = system: SNB-75 CNS
SN12C renal = system: SN12C renal
IGROV1 ovarian = system: IGROV1 ovarian
LOX IMVI melanoma = system: LOX IMVI melanoma
HL-60(TB) leukemia = system: HL-60(TB) leukemia
BT-549 breast = system: BT-549 breast
SK-MEL-2 melanoma = system: SK-MEL-2 melanoma
T-47D breast = system: T-47D breast
DMS 114 small cell lung = system: DMS 114 small cell lung
KM20L2 colon = system: KM20L2 colon
KM12 colon = system: KM12 colon
NCI-H226 lung = system: NCI-H226 lung
NCI-H460 lung = system: NCI-H460 lung
PC-3 prostate = system: PC-3 prostate
HT29 colon = system: HT29 colon
EKVX NSCLC = system: EKVX NSCLC
A549 NSCLC = system: A549 NSCLC
RXF 393 renal = system: RXF 393 renal
OVCAR-3 ovarian = system: OVCAR-3 ovarian
M14 melanoma = system: M14 melanoma
SF-295 CNS = system: SF-295 CNS
HCC-2998 colon = system: HCC-2998 colon
UACC-62 melanoma = system: UACC-62 melanoma
HCT-15 colon = system: HCT-15 colon
CAKI-1 renal = system: CAKI-1 renal
SK-MEL-28 melanoma = system: SK-MEL-28 melanoma
NCI/ADR-RES ovarian = system: NCI/ADR-RES ovarian
SW-620 colon = system: SW-620 colon
MALME-3M melanoma = system: MALME-3M melanoma
SF-539 CNS = system: SF-539 CNS
XF 498 CNS = system: XF 498 CNS
UACC-257 melanoma = system: UACC-257 melanoma
CCRF-CEM leukemia = system: CCRF-CEM leukemia
MCF7 breast = system: MCF7 breast

SMILES: COC1C(C)OC(OC2CC(C)(O)Cc3cc4c(c(O)c32)C(=O)c2c(O)cc3c(c2C4=O)OC2OC3(C)C(O)C(N(C)C)C2O)C(OC)C1(C)OC (stereo not drawn)
- GI50 (HOP-18 NSCLC): 157 nM
- TGI (HOP-18 NSCLC): 919 nM and 3110 nM
- TGI (SK-OV-3 ovarian): 1520 nM and 10700 nM
- TGI (MDA-MB-435): 3.06 nM
- GI50 (ACHN renal): 216 nM
- TGI (HOP-62 NSCLC): 921 nM and 347 nM
- GI50 (HCT-116 colon): 2.73 nM and 13.2 nM
- GI50 (SF-268 CNS): 51.2 nM and 16.1 nM
- TGI (SF-268 CNS): 1810 nM and 1030 nM
- GI50 (DLD-1 colon): 183 nM
- TGI (DLD-1 colon): 5120 nM and 3910 nM
- GI50 (SNB-19 CNS): 55 nM and 18.1 nM
- GI50 (NCI-H522 lung): 93 nM and 18.6 nM
- GI50 (OVCAR-8 ovarian): 41.6 nM and 17.6 nM
- TGI (OVCAR-8 ovarian): 2790 nM and 1370 nM
- GI50 (NCI-H23 lung): 39.5 nM and 21.6 nM
- GI50 (DMS 273 small cell lung): 29.8 nM
- TGI (DMS 273 small cell lung): 557 nM and 137 nM
- GI50 (SR leukemia): 11.4 nM
- TGI (786-0 renal): 2460 nM
- GI50 (MOLT-4 leukemia): 36.6 nM and 20 nM
- GI50 (K-562 leukemia): 27.2 nM and 63.6 nM
- TGI (K-562 leukemia): 1940 nM and 1510 nM
- GI50 (SNB-78 CNS): 6.57 nM and 32.7 nM
- TGI (SNB-78 CNS): 1780 nM and 2570 nM
- GI50 (HOP-92 NSCLC): 2.96 nM and 15.6 nM
- TGI (HS 578T breast): 0.563 nM
- TGI (P388 leukemia): 510 nM
- GI50 (TK-10 renal): 109 nM
- TGI (TK-10 renal): 781 nM
- GI50 (U251 CNS): 45.9 nM and 16 nM
- TGI (MDA-N): 1.87 nM
- TGI (SN12K1 renal): 60 nM
- TGI (RXF-631 renal): 7140 nM
- TGI (OVCAR-4 ovarian): 1610 nM
- TGI (LXFL 529 NSCLC): 2840 nM
- TGI (P388/ADR leukemia): 7100 nM
- GI50 (SNB-75 CNS): 3.61 nM and 31.5 nM
- TGI (SN12C renal): 6120 nM and 6560 nM
- TGI (IGROV1 ovarian): 3470 nM and 5050 nM
- GI50 (LOX IMVI melanoma): 22.6 nM and 66.1 nM
- GI50 (HL-60(TB) leukemia): 71.1 nM and 105 nM
- TGI (HL-60(TB) leukemia): 588 nM and 535 nM
- TGI (BT-549 breast): 6.55 nM
- GI50 (SK-MEL-2 melanoma): 30.3 nM
- TGI (SK-MEL-2 melanoma): 137 nM and 38.6 nM
- TGI (T-47D breast): 0.313 nM
- TGI (DMS 114 small cell lung): 63.5 nM and 44.6 nM
- GI50 (KM20L2 colon): 65.1 nM
- TGI (KM20L2 colon): 571 nM and 1600 nM
- GI50 (KM12 colon): 63.9 nM and 28.9 nM
- GI50 (NCI-H226 lung): 19.8 nM
- TGI (NCI-H226 lung): 395 nM and 113 nM
- GI50 (NCI-H460 lung): 30.3 nM and 15.5 nM
- TGI (NCI-H460 lung): 1860 nM and 233 nM
- TGI (PC-3 prostate): 3.75 nM
- GI50 (HT29 colon): 4.53 nM and 37.9 nM
- TGI (EKVX NSCLC): 1210 nM and 304 nM
- GI50 (A549 NSCLC): 83.5 nM and 47.6 nM
- GI50 (RXF 393 renal): 54.8 nM and 19.1 nM
- GI50 (OVCAR-3 ovarian): 104 nM and 37.6 nM
- GI50 (M14 melanoma): 141 nM
- GI50 (SF-295 CNS): 53.8 nM and 35.6 nM
- GI50 (HCC-2998 colon): 39.3 nM
- TGI (HCC-2998 colon): 447 nM and 178 nM
- GI50 (UACC-62 melanoma): 4.41 nM and 31.2 nM
- GI50 (HCT-15 colon): 641 nM and 494 nM
- TGI (HCT-15 colon): 9850 nM and 15200 nM
- GI50 (CAKI-1 renal): 47.6 nM and 21.9 nM
- TGI (CAKI-1 renal): 422 nM and 452 nM
- GI50 (SK-MEL-28 melanoma): 68.7 nM and 33.4 nM
- TGI (NCI/ADR-RES ovarian): 21200 nM
- GI50 (SW-620 colon): 38 nM and 24 nM
- TGI (SW-620 colon): 2840 nM and 2410 nM
- GI50 (MALME-3M melanoma): 17.8 nM
- TGI (MALME-3M melanoma): 383 nM and 94.4 nM
- GI50 (SF-539 CNS): 38 nM and 17.1 nM
- GI50 (XF 498 CNS): 30 nM
- TGI (XF 498 CNS): 292 nM and 48.3 nM
- GI50 (UACC-257 melanoma): 78.4 nM and 38.8 nM
- GI50 (CCRF-CEM leukemia): 58.4 nM and 61.2 nM
- TGI (CCRF-CEM leukemia): 872 nM and 1320 nM
- TGI (MCF7 breast): 413 nM
